Values of other authors as cited in US5843995A, “Inhibition of HIV-1 replication using oligocarbamate derivatives” (University of Medicine and Dentistry of New Jersey, priority 1997, dated 1998).

Tested on: HIV-1
Settings: cells pretreated with peptide 24 hours prior to infection

Compound: CC(=O)N[C@H](CCCNC(=N)N)C(=O)N[C@H](CCCNC(=N)N)C(=O)N[C@H](CCCNC(=N)N)C(=O)N[C@H](CCCNC(=N)N)C(=O)N[C@H](CCCNC(=N)N)C(=O)N[C@H](CCCNC(=N)N)C(=O)N[C@H](CCCNC(=N)N)C(=O)N[C@H](CCCNC(=N)N)C(=O)N[C@H](CCCNC(=N)N)C(N)=O [N-acetyl-(DArg)9 -NH2]
- mechanism of antiviral activity: via inhibition of viral entry
